According to patent publication EP3991729A1, “USE OF AMLEXANOX IN PREPARING ANTI-HEPATITIS VIRUS DRUG” (Marine Biomedical Research Institute Of Qingdao Co., Ltd., priority 2019, dated 2020):

Experiments:
[1] = test system: hepatitis B virus; experiment: HBV replication in HepAD38 cell model, qPCR of cccDNA, core particle DNA and supernatant HBV DNA; assay type: cell-based; conditions: 20µM, 10µM and 5µM, HepAD38, 96 and 144 hours, Figures 10, 11, 12
Experimental: 2×10^5 HepAD38 cells that were stably expressing HBV with good growth status were seeded in collagen pretreated 6-well plates, and the corresponding concentrations of the test substances were added: final concentration of 1µM for entecavir (ETV) and a final concentration of 20µM, 10µM, and 5µM for amlexanox (AML), respectively. Two groups of controls were also set up, one with solvent only (DMF) and one with antibiotic only (tetracycline). Three replicate wells were set for all groups. After 96 hours and 144 hours of test article addition, 500 µL of cell culture supernatant was used to extract DNA from the supernatant, and the amount of HBV DNA in the supernatant was detected by qPCR. After 144h, cells were harvested and lysed in Lysis buffer A (50 mM Tris-HCl, pH 7.4, 1 mM EDTA, and 1% NP-40). The supernatant and pellet of the lysates were collected, respectively, from which DNA was extracted and quantified by quantitative PCR. Linear DNA was removed by DNA exonuclease (NEB) after DNA extraction from the cell lysate pellet, so only circular DNA (cccDNA) was examined (Figure 10). Viral DNA in the supernatant of cell lysates was defined as core particle DNA (Figure 11).

[2] = test system: B and T cells; experiment: Immune cells in blood of HBV-infected mice, flow cytometry; conditions: 4, 8, 16 mg/kg/time, twice a day, oral gavage, day 9, Figure 19
Experimental: (§3) Six-week-old male C57 mice were rapidly injected with 10µg/mouse of viral genomic DNA (genotype A) by tail vein injection in a short period. Viral infection was established using a venous hypertension model and randomly divided into groups. […] At the same time, a blank control was set up, and oral administration in uninfected mice was equivalent to the model group.
On day 9, mice were sacrificed to collect blood stained with flow antibody after fission red. All cells were treated with anti-FcγRIII/ II (purchased from BD Biosciences) in PBS for 30 min. CD3e-FITC (purchased from BD Biosciences). CD4-PE, CD8a-APC-Vio770, and CD34-FITC (GE). CD19-APC, CD11b-PE-Cyanine7, and CD117-efflor 450 (purchased from eBioscience). After staining, the samples were suspended using 500µL PBS and analyzed by BD Aria III flow cytometer.

[3] = test system: hepatitis B virus; experiment: Mouse venous hypertension model (genotype B), HBsAg in peripheral blood by ELISA; assay type: in vivo, Wild-type mice (C57/B6)
Experimental: . On the 9th day after infection, about 100µl/mouse of blood was harvested from the tail to separate serum, and the concentration of HBsAg in peripheral blood was detected by ELISA. The OD value at 450nm was measured on a microplate reader.
. On the 9th day after infection, about 100µl of blood was harvested from each animal, serum was separated, and the concentration of HBsAg in peripheral blood was measured by ELISA.

[4] = test system: hepatitis B virus; experiment: HBV core antigen (HBeAg) in culture supernatant of HepAD38 cells, ELISA; assay type: cell-based; conditions: 16µM to 2µM, HepAD38, 24h to 144h, Figure 14
Experimental: A solvent-only control group (DMF) was also set up. Three replicate wells were set up for all experiments. 500µL of culture supernatant was taken at 24h, 48h, 72h, 96h, and 144h after adding the test article for ELISA to detect HBV core antigen (HBeAg) concentration.

[5] = test system: alanine aminotransferase (ALT); experiment: Mouse venous hypertension model (genotype A), serum alanine aminotransferase (ALT) activity, colorimetric kit; conditions: 25-200 mg/day (converted adult dose), once a day oral gavage, Figure 16
Experimental: as §3
On days 1, 3, and 7 of administration, an appropriate amount of blood was collected from the tail vein of mice in each group. On day 9, the remaining peripheral blood was collected after the mice were sacrificed. All blood samples were centrifuged to obtain serum, divided into two portions. One was used to detect the concentration of HBsAg by ELISA, and the other was used to detect the enzyme activity of alanine aminotransferase (ALT) by alanine aminotransferase kit (colorimetric method) (Nanjing Jiancheng Bioengineering Institute).

[6] = test system: HCT-116 cells; experiment: Cytotoxicity test, MTT assay; assay type: cell-based
Experimental: (§1) […]. Various cells in the logarithmic growth phase were seeded in 96-well plates at 6,000 cells/well and cultured for 24h. […]. The dosage of DMSO in the solvent control group was based on the maximum dose of 0.1% used in the test group, with four duplicate wells for each concentration. Cells were treated with the drug for 72h and then added with 20µL 5 mg/mL MTT, cultured at 37°C for 4h, after added 100 µ L triple solution (10% SDS, 5% isobutanol, 12 mM hydrochloric acid), 96-well cell culture plate was placed in an incubator containing 5% CO2 at 37 ± 1°C overnight. OD value at 570nm was measured on a microplate reader.
(§2) The inhibition rate of tumor cell growth was calculated according to the following formula: Inhibition rate(%) = [(OD570controlwell−OD570dosewell)/OD570controlwell] × 100. [formula]

[7] = test system: HepG2 cells; experiment: Cytotoxicity test, MTT assay; assay type: cell-based; conditions: Homo sapiens, HepG2, 72 h, read-out: Inhibition (%) Hep G2
Experimental: as §1, §2

[8] = test system: hepatitis B virus; experiment: HBsAg in culture supernatant of HepAD38 cells, ELISA; assay type: cell-based; conditions: 10µM and 5µM, HepAD38, 24h, 48h, 96h, 144h, Figure 13
Experimental: Two groups of controls were also set up, one with only solvents (DMF) and one with antibiotics (tetracycline). Three replicate wells were set up for all experiments. 500µL of culture supernatant was taken at 24h, 48h, 96h, and 144h after adding the test article for ELISA to detect HBsAg concentration (Figure 13).

[9] = test system: 3TC/ETV-resistant HBV; experiment: Mouse venous hypertension model, serum HBsAg by ELISA (Example 13, Figure 17); assay type: in vivo, male C57 mice; conditions: 150 mg/day (converted adult dose, 22.8 mg/kg/day in mice), oral gavage, five days
Excerpt: The specific method was based on the instructions of the ELISA kit.

[10] = test system: hepatitis B virus; experiment: Mouse venous hypertension model (genotype B), core antigen (HBeAg) in peripheral blood by ELISA; assay type: in vivo, Wild-type mice (C57/B6); conditions: 50 mg/kg/day oral gavage, 9th day after infection, Figure 4
Experimental: . On the 9th day after infection, about 100µl/mouse of blood was harvested from the tail to separate serum. The concentration of hepatitis B virus core antigen (HBeAg) in peripheral blood was measured by ELISA. The OD value at 450nm was measured on a microplate reader.

[11] = test system: hepatitis B virus; experiment: HBV transgenic mouse model, serum HBsAg by ELISA; assay type: in vivo, male C57BL/6-HBV transgenic mice; conditions: 48 mg/kg intragastric once daily for 35 days, Figure 18
Experimental: Ten male C57BL/6-HBV transgenic mice (provided by Beijing Vitalstar Biotechnology Co., Ltd.) aged six weeks were randomly divided into two groups (control group, n=5; administration group, n=5).
Route of administration: Intragastric administration, 1mL sterile syringe was used for administration.
Dosing frequency: The drug was administered once daily for 35 consecutive days, with free access to food and water.
Dose-volume: 10 mL/kg. The dose-volume for each animal was determined based on the most recent body weight before administration.
The serum was separated and diluted 5000 times with PBS, respectively. The ELISA kit detected the concentration of HBV surface antigen (HBsAg). The OD value at 450 nm was measured on a microplate reader.
The inhibition rate was calculated according to the following formula: Inhibition rate = [(OD450controlwell−OD450dosewell)/OD450 control; well] × 100% [formula]

[12] = Homo sapiens, HCT-116, 72 h, read-out: Inhibition (%) HCT-116

**Q.** How did the “HBV DNA (cccDNA, core particle DNA, viral DNA in cell culture supernatant)” value [1] turn out when `CC(C)c1ccc2oc3nc(N)c(C(=O)O)cc3c(=O)c2c1` [amlexanox, Amlexanox] was run?
**A.** The value was “significantly inhibits hepatitis B virus replication in the HepAD38 cell model”.

**Q.** What about the “effect on immune cells (B and T cells) in blood” value [2] of the same molecule?
**A.** Its value is “had an inhibitory effect on both B and T cells, and the inhibitory effect was dose-dependent”.

**Q.** And the “concentration of HBsAg in peripheral blood” value ([3]; 50 mg/kg/day oral gavage, 9th day after infection, Figure 3)?
**A.** The value was “reduced HBsAg levels in a mouse model of venous hypertension, and its effect is better than that of lamivudine”.

**Q.** And the “dose of significant effect (inhibition of hepatitis B virus, HBsAg)” value ([3]; oral gavage, 9th day after infection, Figure 7)?
**A.** Its value is 10 to 50 mg/kg.

**Q.** And the “concentration of HBsAg in peripheral blood, dose-response relationship” value ([3]; oral gavage, daily dose as in Figure 7, 9th day after infection)?
**A.** Its value is “its ability to inhibit the hepatitis B virus in the venous hypertension mouse model is enhanced”.

**Q.** And the “HBV core antigen (HBeAg) concentration in culture supernatant” value [4]?
**A.** The value was “significantly reduce HBsAg level and core antigen level”.

**Q.** And the “enzyme activity of alanine aminotransferase (ALT) in serum” value [5]?
**A.** Its value is “can effectively reduce alanine aminotransferase activity”.

**Q.** What about the cytotoxicity ([6]; HCT-116, 100 µM, 72h) of the same molecule?
**A.** Its cytotoxicity is “some cytotoxicity”.

**Q.** What about the inhibition at 3.125 µM [6, 12] of the same molecule?
**A.** The inhibition at 3.125 µM was 0%.

**Q.** And the inhibition at 6.25 µM [6, 12]?
**A.** Its inhibition at 6.25 µM is 0%.

**Q.** And the inhibition at 12.5 µM [6, 12]?
**A.** The inhibition at 12.5 µM was 0.11%.

**Q.** What about the inhibition at 25 µM [6, 12] of the same molecule?
**A.** Its inhibition at 25 µM is 1.17%.

**Q.** And the inhibition at 50 µM [6, 12]?
**A.** The inhibition at 50 µM was 6.41%.

**Q.** And the inhibition at 100 µM [6, 12]?
**A.** The inhibition at 100 µM was 31.1%.

**Q.** And the inhibition at 3.125 µM [7]?
**A.** The inhibition at 3.125 µM was 0%.

**Q.** What about the inhibition at 6.25 µM [7] of the same molecule?
**A.** The inhibition at 6.25 µM was 0%.

**Q.** What about the inhibition at 12.5 µM [7] of the same molecule?
**A.** The inhibition at 12.5 µM was 0%.

**Q.** What about the inhibition at 25 µM [7] of the same molecule?
**A.** The inhibition at 25 µM was 0%.

**Q.** And the inhibition at 50 µM [7]?
**A.** The inhibition at 50 µM was 0%.

**Q.** And the inhibition at 100 µM [7]?
**A.** The inhibition at 100 µM was 4.8%.

**Q.** And the “HBsAg concentration in culture supernatant” value [8]?
**A.** Its value is “significantly reduce HBsAg level”.

**Q.** And the “HBsAg level in the blood” value [9]?
**A.** Its value is “significantly decreased”.

**Q.** And the “concentration of hepatitis B virus core antigen (HBeAg) in peripheral blood” value [10]?
**A.** The value was “reduced hepatitis B virus core antigen levels in a mouse model of venous hypertension, and its effect was comparable to that of lamivudine”.

**Q.** And the “HBV surface antigen (HBsAg) in serum” value [11]?
**A.** Its value is “could inhibit HBsAg level in transgenic mice”.
